Experimental data: patent US9663526B2, “Aminopyrimidinyl compounds” (Pfizer Inc., priority 2014, dated 2017)
Like-named read-outs stand apart in the source and are kept apart here.

Assays:
Type in all cases: biochemical
[1] = target: recombinant human kinase domain of JAK1 (Homo sapiens (Human), UniProt P23458); experiment: JAK Caliper enzyme assay at 1 mM ATP (JAK1);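 further: microfluidic mobility-shift readout of synthetic fluorescent peptide phosphorylation, percent product converted from peak height, inhibition relative to DMSO-only wells as uninhibited baseline, room temperature incubation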
Sequence of recombinant human kinase domain of JAK1 (P23458 875-1153): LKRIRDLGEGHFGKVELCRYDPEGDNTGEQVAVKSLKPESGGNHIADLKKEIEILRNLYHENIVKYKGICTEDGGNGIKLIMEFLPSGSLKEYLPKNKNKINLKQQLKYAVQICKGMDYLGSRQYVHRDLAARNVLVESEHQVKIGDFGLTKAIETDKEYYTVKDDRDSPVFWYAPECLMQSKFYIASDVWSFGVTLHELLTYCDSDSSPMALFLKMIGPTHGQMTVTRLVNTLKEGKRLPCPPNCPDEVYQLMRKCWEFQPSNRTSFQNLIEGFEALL

[2] = target: recombinant human kinase domain of JAK2 (Homo sapiens (Human), UniProt O60674); experiment: JAK Caliper enzyme assay at 1 mM ATP (JAK2);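 further: microfluidic mobility-shift read-out of fluorescent synthetic peptide phosphorylation, percent product converted from peak heights, room temperature, DMSO-only wells as uninhibited baseline, inhibition curve fit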
Sequence of recombinant human kinase domain of JAK2 (O60674 849-1124): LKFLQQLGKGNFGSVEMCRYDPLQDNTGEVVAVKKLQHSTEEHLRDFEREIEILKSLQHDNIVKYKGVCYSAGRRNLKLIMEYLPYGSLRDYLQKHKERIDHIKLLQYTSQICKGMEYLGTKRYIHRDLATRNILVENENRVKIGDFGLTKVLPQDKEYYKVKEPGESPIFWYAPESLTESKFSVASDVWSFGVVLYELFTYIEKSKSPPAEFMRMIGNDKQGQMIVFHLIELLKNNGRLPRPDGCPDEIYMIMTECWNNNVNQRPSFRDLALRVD

[3] = target: recombinant human kinase domain of JAK3 (Homo sapiens (Human), UniProt P52333); experiment: JAK Caliper enzyme assay at 1 mM ATP (JAK3);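 further: microfluidic mobility-shift readout of synthetic peptide phosphorylation, percent product converted from peak heights, normalized to DMSO-only wells as uninhibited baseline, room temperature incubation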
Sequence of recombinant human kinase domain of JAK3 (P52333 822-1111): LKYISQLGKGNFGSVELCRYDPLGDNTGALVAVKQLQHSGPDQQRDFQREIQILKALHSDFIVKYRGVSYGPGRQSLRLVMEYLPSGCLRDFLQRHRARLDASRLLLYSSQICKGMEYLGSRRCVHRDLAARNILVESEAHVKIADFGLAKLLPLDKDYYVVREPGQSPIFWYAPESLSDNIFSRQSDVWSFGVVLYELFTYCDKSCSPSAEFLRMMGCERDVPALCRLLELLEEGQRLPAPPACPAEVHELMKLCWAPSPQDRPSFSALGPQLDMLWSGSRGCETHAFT

[4] = target: recombinant human kinase domain of TYK2 (Homo sapiens (Human), UniProt P29597); experiment: JAK Caliper enzyme assay at 1 mM ATP (TYK2); conditions: 1 mM ATP; read-out: IC50 (nM) TYK2;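 further: microfluidic mobility-shift readout of synthetic peptide phosphorylation by TYK2, tuned to 20–30% conversion at room temperature, reaction stopped with EDTA, DMSO-only wells as uninhibited baseline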
Sequence of recombinant human kinase domain of TYK2 (P29597 897-1176): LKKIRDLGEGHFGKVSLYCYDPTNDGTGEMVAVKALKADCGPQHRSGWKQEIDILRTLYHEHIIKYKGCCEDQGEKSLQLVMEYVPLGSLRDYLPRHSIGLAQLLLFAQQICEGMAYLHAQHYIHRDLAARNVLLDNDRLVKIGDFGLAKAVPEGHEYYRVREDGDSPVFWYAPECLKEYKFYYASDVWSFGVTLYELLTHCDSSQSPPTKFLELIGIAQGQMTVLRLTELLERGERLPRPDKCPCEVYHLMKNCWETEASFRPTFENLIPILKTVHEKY

[5] = 1 mM ATP, read-out: IC50 (nM) JAK1
[6] = 1 mM ATP, read-out: IC50 (nM) JAK3

`CNC(=O)c1ncc(Nc2nccc(N3C[C@H]4CC[C@@H](C3)N4[C@H]3C[C@H](C#N)C3)n2)cc1C` (single isomer, unassigned) [Example 62] gave an IC50 [1] of 1020 nM, an IC50 [2] of 1390 nM and an IC50 [3] of over 10000 nM. The IC50 [4] was 224 nM.

`CNC(=O)c1ncc(Nc2nccc(N3C[C@H]4CC[C@@H](C3)N4C[C@@H]3CC3(F)F)n2)cc1C` (single isomer, unassigned) [Example 67] was tested, and the IC50 [1, 5] was 418 nM, the IC50 [2] was 973 nM and the IC50 [3, 6] was over 10000 nM. The IC50 [4] was 108 nM.

In the case of `C[C@@H]1[C@@H]2CN(c3nc(Nc4ccc([C@@H](C)CO)nc4)ncc3F)C[C@]12NC(=O)C1CC1` (single isomer, unassigned) [Example 103], the IC50 [1, 5] is reported as 1740 nM, the IC50 [2] is reported as 3460 nM and the IC50 [3, 6] is reported as over 10000 nM. For the same compound, the IC50 [4] was 150 nM.

`C[C@H](CO)c1ccc(Nc2ncc(F)c(N3C[C@H]4[C@@H](C)[C@@]4(NC(=O)C4CC4)C3)n2)cn1` (single isomer, unassigned) [Example 104] showed an IC50 [1, 5] of 1150 nM, an IC50 [2] of 3130 nM and an IC50 [3, 6] of over 10000 nM. It also gave an IC50 [4] of 86 nM.

`O=C(C1CC1)N1[C@@H]2CC[C@H]1CN(c1nc(Nc3ccnnc3)ncc1F)C2` [Example 1, cyclopropyl{(1R,5S)-3-[5-fluoro-2-(pyridazin-4-ylamino)pyrimidin-4-yl]-3,8-diazabicyclo[3.2.1]oct-8-yl}methanone] was tested, and the IC50 [1, 5] was 2730 nM, the IC50 [2] was over 10000 nM and the IC50 [3, 6] was over 10000 nM. For the same compound, the IC50 [4] was 1100 nM.

Work on `CCCNC(=O)c1cc(Nc2ncc(F)c(N3C[C@H]4CC[C@@H](C3)N4C(=O)C3CC3)n2)n[nH]1` [Example 2, 3-({4-[(1R,5S)-8-(cyclopropylcarbonyl)-3,8-diazabicyclo[3.2.1]oct-3-yl]-5-fluoropyrimidin-2-yl}amino)-N-propyl-1H-pyrazole-5-carboxamide] yielded an IC50 [1, 5] of 1550 nM, an IC50 [2] of 4720 nM and an IC50 [3, 6] of over 10000 nM. For the same compound, the IC50 [4] was 432 nM.

Compound `NS(=O)(=O)c1ccc(Nc2ncc(F)c(N3C[C@H]4CC[C@@H](C3)N4C(=O)C3CC3)n2)cn1` [Example 4, 5-({4-[(1R,5S)-8-(cyclopropylcarbonyl)-3,8-diazabicyclo[3.2.1]oct-3-yl]-5-fluoropyrimidin-2-yl}amino)pyridine-2-sulfonamide] has an IC50 [1, 5] of 659 nM, an IC50 [3, 6] of over 10000 nM and an IC50 [4] of 176 nM.

Compound `CCNC(=O)c1ccc(Nc2nccc(N3C[C@H]4CC[C@@H](C3)N4C(=O)CC#N)n2)cc1` [Example 13, 4-({4-[(1R,5S)-8-(cyanoacetyl)-3,8-diazabicyclo[3.2.1]oct-3-yl]pyrimidin-2-yl}amino)-N-ethylbenzamide] has an IC50 [1, 5] of 41 nM, an IC50 [2] of 199 nM and an IC50 [3, 6] of over 10000 nM.

Compound `O=C(c1ccno1)N1[C@@H]2CC[C@H]1CN(c1ccnc(Nc3cn[nH]c3)n1)C2` [Example 17, 1,2-oxazol-5-yl{(1R,5S)-3-[2-(1H-pyrazol-4-ylamino)pyrimidin-4-yl]-3,8-diazabicyclo[3.2.1]oct-8-yl}methanone] has an IC50 [1, 5] of 684 nM, an IC50 [2] of 3380 nM and an IC50 [3, 6] of over 10000 nM. It also gave an IC50 [4] of 242 nM.

`CNC(=O)c1ncc(Nc2nccc(N3C[C@H]4CC[C@@H](C3)N4C(=O)[C@H]3CC3(F)F)n2)cc1F` [Example 28, 5-({4-[(1R,5S)-8-{[(1R)-2,2-difluorocyclopropyl]carbonyl}-3,8-diazabicyclo[3.2.1]oct-3-yl]pyrimidin-2-yl}amino)-3-fluoro-N-methylpyridine-2-carboxamide] showed an IC50 [1] of 1370 nM, an IC50 [2] of 8150 nM and an IC50 [3, 6] of over 10000 nM. The IC50 [4] was 736 nM.

With `Cc1cc(Nc2nccc(N3C[C@H]4CC[C@@H](C3)N4C(=O)C3CC3(F)F)n2)cnc1C(N)=O` (stereo partly drawn) [Example 34, 5-[(4-{(1R,5S)-8-[(2,2-difluorocyclopropyl)carbonyl]-3,8-diazabicyclo[3.2.1]oct-3-yl}pyrimidin-2-yl)amino]-3-methylpyridine-2-carboxamide] the IC50 [1, 5] was 152 nM, the IC50 [2] was 377 nM and the IC50 [3, 6] was over 10000 nM.

`Cn1cc(Nc2nccc(N3C[C@H]4CC[C@@H](C3)N4C(=O)[C@@H]3C[C@@H]3C#N)n2)cn1` [Example 37, (1S,2R)-2-{[(1R,5S)-3-{2-[(1-methyl-1H-pyrazol-4-yl)amino]pyrimidin-4-yl}-3,8-diazabicyclo[3.2.1]oct-8-yl]carbonyl}cyclopropanecarbonitrile] gave an IC50 [1, 5] of 467 nM, an IC50 [2] of 1400 nM and an IC50 [3, 6] of 8310 nM. The IC50 [4] was 250 nM.

`Cn1cc(Nc2nccc(N3C[C@H]4CC[C@@H](C3)N4C(=O)[C@H]3C[C@H]3C#N)n2)cn1` [Example 38, (1R,2S)-2-{[(1R,5S)-3-{2-[(1-methyl-1H-pyrazol-4-yl)amino]pyrimidin-4-yl}-3,8-diazabicyclo[3.2.1]oct-8-yl]carbonyl}cyclopropanecarbonitrile] gave an IC50 [1, 5] of 707 nM, an IC50 [2] of 2330 nM and an IC50 [3, 6] of over 10000 nM. For the same compound, the IC50 [4] was 427 nM.

`Cn1cc(Nc2nccc(N3C[C@H]4CC[C@@H](C3)N4C(=O)C3CC(F)(F)C3)n2)cn1` [Example 39, (3,3-difluorocyclobutyl)[(1R,5S)-3-{2-[(1-methyl-1H-pyrazol-4-yl)amino]pyrimidin-4-yl}-3,8-diazabicyclo[3.2.1]oct-8-yl]methanone] was tested, and the IC50 [1, 5] was 305 nM, the IC50 [2] was 1170 nM and the IC50 [3, 6] was over 10000 nM. For the same compound, the IC50 [4] was 136 nM.

With `CNC(=O)c1cc(Nc2nccc(N3C[C@H]4CC[C@@H](C3)N4C(=O)[C@@H]3CC3(F)F)n2)cc(C)n1` [Example 40, 4-({4-[(1R,5S)-8-{[(1S)-2,2-difluorocyclopropyl]carbonyl}-3,8-diazabicyclo[3.2.1]oct-3-yl]pyrimidin-2-yl}amino)-N,6-dimethylpyridine-2-carboxamide] the IC50 [1, 5] was 369 nM, the IC50 [2] was 189 nM and the IC50 [3, 6] was over 10000 nM. For the same compound, the IC50 [4] was 70 nM.

Compound `CNC(=O)c1cc(Nc2nccc(N3C[C@H]4CC[C@@H](C3)N4C(=O)[C@@H]3CC3(F)F)n2)cc(CO)n1` [Example 41, 4-({4-[(1R,5S)-8-{[(1S)-2,2-difluorocyclopropyl]carbonyl}-3,8-diazabicyclo[3.2.1]oct-3-yl]pyrimidin-2-yl}amino)-6-(hydroxymethyl)-N-methylpyridine-2-carboxamide] has an IC50 [1, 5] of 201 nM, an IC50 [2] of 279 nM and an IC50 [3, 6] of over 10000 nM. It also gave an IC50 [4] of 84 nM.

`Cn1cc(Nc2nccc(N3C[C@H]4CC[C@@H](C3)N4C(=O)[C@@H]3C[C@@H]3F)n2)cn1` [Example 43, [(1S,2S)-2-fluorocyclopropyl][(1R,5S)-3-{2-[(1-methyl-1H-pyrazol-4-yl)amino]pyrimidin-4-yl}-3,8-diazabicyclo[3.2.1]oct-8-yl]methanone] was tested, and the IC50 [1, 5] was 902 nM, the IC50 [2] was 2840 nM and the IC50 [3, 6] was over 10000 nM. For the same compound, the IC50 [4] was 474 nM.

`Cn1cc(Nc2nccc(N3C[C@H]4CC[C@@H](C3)N4C(=O)NCCC#N)n2)cn1` [Example 47, (1R,5S)—N-(2-cyanoethyl)-3-{2-[(1-methyl-1H-pyrazol-4-yl)amino]pyrimidin-4-yl}-3,8-diazabicyclo[3.2.1]octane-8-carboxamide] was tested, and the IC50 [1, 5] was 42 nM, the IC50 [3, 6] was over 10000 nM and the IC50 [4] was 65 nM.

For `O=C([C@H]1CC1(F)F)N1[C@@H]2CC[C@H]1CN(c1ccnc(Nc3cn[nH]c3)n1)C2` [Example 50, ((1R,5S)-3-(2-((1H-Pyrazol-4-yl)amino)pyrimidin-4-yl)-3,8-diazabicyclo[3.2.1]octan-8-yl)((R)-2,2-difluorocyclopropyl)methanone], the IC50 [1, 5] was 478 nM, the IC50 [2] was 3420 nM and the IC50 [3, 6] was over 10000 nM.

Work on `CNC(=O)c1ncc(Nc2nccc(N3C[C@H]4CC[C@@H](C3)N4CC3(C)COC3)n2)cc1C` [Example 54, N,3-dimethyl-5-[(4-{(1R,5S)-8-[(3-methyloxetan-3-yl)methyl]-3,8-diazabicyclo[3.2.1]oct-3-yl}pyrimidin-2-yl)amino]pyridine-2-carboxamide] yielded an IC50 [1, 5] of 19 nM, an IC50 [3, 6] of 4290 nM and an IC50 [4] of 8 nM.

Compound `N#CC1(CN2[C@@H]3CC[C@H]2CN(c2ccnc(Nc4cn[nH]c4)n2)C3)CC1` [Example 71, 1-({(1R,5S)-3-[2-(1H-pyrazol-4-ylamino)pyrimidin-4-yl]-3,8-diazabicyclo[3.2.1]oct-8-yl}methyl)cyclopropanecarbonitrile] has an IC50 [1, 5] of 153 nM, an IC50 [3, 6] of over 10000 nM and an IC50 [4] of 152 nM.

`CCNC(=O)c1ccc(Nc2ncc(F)c(N3C[C@H]4CC[C@@H](C3)N4C(=O)C(F)(F)F)n2)cc1C` [Example 72, N-ethyl-4-({5-fluoro-4-[8-(trifluoroacetyl)-3,8-diazabicyclo[3.2.1]oct-3-yl]pyrimidin-2-yl}amino)-2-methylbenzamide] showed an IC50 [1, 5] of 81 nM, an IC50 [2] of 151 nM and an IC50 [3, 6] of 411 nM.

Compound `C[C@@H]1[C@@H]2CN(c3nc(Nc4cnc([C@@H](C)O)c(Cl)c4)ncc3F)C[C@]12NC(=O)C1CC1` [Example 106, N-{(1S,5R,6R)-3-[2-({5-chloro-6-[(1R)-1-hydroxyethyl]pyridin-3-yl}amino)-5-fluoropyrimidin-4-yl]-6-methyl-3-azabicyclo[3.1.0]hex-1-yl}cyclopropanecarboxamide] has an IC50 [2] of 9410 nM and an IC50 [3, 6] of over 10000 nM.

With `CCNC(=O)c1ccc(Nc2ncc(F)c(N3CC4CC(C3)N4C(=O)C(F)(F)F)n2)cc1C` [Example 116, N-ethyl-4-({5-fluoro-4-[6-(trifluoroacetyl)-3,6-diazabicyclo[3.1.1]hept-3-yl]pyrimidin-2-yl}amino)-2-methylbenzamide] the IC50 [1, 5] was 1470 nM, the IC50 [3, 6] was 9820 nM and the IC50 [4] was 20 nM.

In the case of `NC(=O)c1ncc(Nc2nccc(N3C[C@H]4CC[C@@H](C3)N4C(=O)[C@@H]3CC3(F)F)n2)cc1F` [Example 117, 5-({4-[(1R,5S)-8-{[(1S)-2,2-Difluorocyclopropyl]carbonyl}-3,8-diazabicyclo[33.2.1]oct-3-yl]pyrimidin-2-yl}amino)-3-fluoropyridine-2-carboxamide], the IC50 [1, 5] is reported as 114 nM, the IC50 [2] is reported as 452 nM and the IC50 [3, 6] is reported as over 10000 nM.
